What was measured:
hSERT = hSERT (Homo sapiens (Human), UniProt P31645); experiment: SERT radioligand binding assay ([125I]RTI-55); conditions: (+)-enantiomers; membranes of HEK-293 cells expressing hSERT
Protocol: The medium was removed from the flasks and the cells rinsed with HBSS without Ca and without Mg. The cells were then incubated for 5-10 minutes in 10 mM Tris-Cl, pH 7.5, 5 mM EDTA before the cells were lifted with a combination of pipetting and scraping, as needed. The cell suspension was collected into centrifuge bottles and homogenized for 30 seconds with a Polytron homogenizer. The suspension was centrifuged for 30 minutes at 32,000×g, 4° C. The supernatant was decanted and the pellet resuspended and homogenized in 50 mM Tris-Cl, pH 7.5, 1 mM EDTA for 10 seconds. The suspension was then centrifuged again for 30 minutes at 32,000×g, 4° C. The supernatant was decanted and the pellet resuspended in 50 mM Tris-Cl, pH 7.5, 1 mM EDTA and briefly homogenized. A Bradford assay (Bio-rad) was performed and the membrane preparation diluted to 2 mg/ml with 50 mM Tris-Cl, pH 7.5, 1 mM EDTA. Aliquots were prepared, and then frozen and stored at −80° C.
Compounds were dissolved in 100% DMSO at a concentration 100 times the desired highest assay concentration, serially diluted 1:3 in 100% DMSO, and 0.4 μl/well of each solution was dispensed to a Nunc polypropylene, round bottom, 384-well plate. […] The plates were air-dried overnight, 12 μl/well of MicroScint scintillation fluid added, and the plates counted in a Trilux. […]

hDAT = hDAT (Homo sapiens (Human), UniProt Q01959); experiment: DAT radioligand binding assay ([125I]RTI-55); conditions: (+)-enantiomers; membranes of HEK-293 cells expressing hDAT
Protocol: Recombinant HEK-293 cells expressing either the hSERT, hDAT, or hNET proteins were harvested from T-175 flasks as follows. The medium was removed from the flasks and the cells rinsed with HBSS without Ca and without Mg. The cells were then incubated for 5-10 minutes in 10 mM Tris-Cl, pH 7.5, 5 mM EDTA before the cells were lifted with a combination of pipetting and scraping, as needed. The cell suspension was collected into centrifuge bottles and homogenized for 30 seconds with a Polytron homogenizer. The suspension was centrifuged for 30 minutes at 32,000×g, 4° C. The supernatant was decanted and the pellet resuspended and homogenized in 50 mM Tris-Cl, pH 7.5, 1 mM EDTA for 10 seconds. […]
Compounds were dissolved in 100% DMSO at a concentration 100 times the desired highest assay concentration, serially diluted 1:3 in 100% DMSO, and 0.4 μl/well of each solution was dispensed to a Nunc polypropylene, round bottom, 384-well plate. […] The plates were air-dried overnight, 12 μl/well of MicroScint scintillation fluid added, and the plates counted in a Trilux.
The raw data was normalized to percent inhibition using control wells defining 0% (DMSO only) and 100% (selective inhibitor) inhibition which were run on each plate. […] The radioligand concentration chosen for each assay corresponds to the Kd concentration determined through saturation binding analysis for each assay.

Male Swiss Webster mice = experiment: Mouse tail suspension assay; format: in vivo; conditions: acute administration, immobility
Protocol: Male Swiss Webster mice were housed 3-4 per cage in rooms maintained at a constant temperature (21-23° C.) and humidity (50±10%) on a 12-hour light/dark cycle. Animals had ad libitum access to water and food throughout studies. On the day of testing, they were brought into the testing room and allowed to acclimate for one hour. To begin testing, the tail was attached to a piece of tape which is then attached to a hook on the ceiling of a sound-attenuated chamber. Immobility was automatically recorded using the Med Associates software. Compounds were administered acutely at a fixed pretreatment interval before session.

hSERT, sequence (P31645 whole entry): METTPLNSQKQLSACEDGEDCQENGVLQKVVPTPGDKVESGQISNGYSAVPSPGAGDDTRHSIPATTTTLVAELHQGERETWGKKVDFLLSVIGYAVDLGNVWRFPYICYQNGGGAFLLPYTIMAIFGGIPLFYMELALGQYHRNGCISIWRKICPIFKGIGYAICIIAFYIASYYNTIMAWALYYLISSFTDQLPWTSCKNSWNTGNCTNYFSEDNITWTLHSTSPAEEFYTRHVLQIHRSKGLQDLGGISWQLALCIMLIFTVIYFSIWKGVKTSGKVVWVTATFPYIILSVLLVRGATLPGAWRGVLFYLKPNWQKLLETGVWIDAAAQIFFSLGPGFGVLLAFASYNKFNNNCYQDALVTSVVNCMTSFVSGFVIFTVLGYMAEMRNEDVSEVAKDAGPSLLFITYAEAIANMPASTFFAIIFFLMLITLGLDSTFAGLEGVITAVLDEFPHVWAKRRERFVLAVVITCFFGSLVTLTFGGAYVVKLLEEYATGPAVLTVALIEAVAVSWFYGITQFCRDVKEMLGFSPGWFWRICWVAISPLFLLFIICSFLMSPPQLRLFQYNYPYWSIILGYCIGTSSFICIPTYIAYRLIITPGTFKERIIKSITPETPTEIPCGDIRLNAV
hDAT, sequence (Q01959 whole entry): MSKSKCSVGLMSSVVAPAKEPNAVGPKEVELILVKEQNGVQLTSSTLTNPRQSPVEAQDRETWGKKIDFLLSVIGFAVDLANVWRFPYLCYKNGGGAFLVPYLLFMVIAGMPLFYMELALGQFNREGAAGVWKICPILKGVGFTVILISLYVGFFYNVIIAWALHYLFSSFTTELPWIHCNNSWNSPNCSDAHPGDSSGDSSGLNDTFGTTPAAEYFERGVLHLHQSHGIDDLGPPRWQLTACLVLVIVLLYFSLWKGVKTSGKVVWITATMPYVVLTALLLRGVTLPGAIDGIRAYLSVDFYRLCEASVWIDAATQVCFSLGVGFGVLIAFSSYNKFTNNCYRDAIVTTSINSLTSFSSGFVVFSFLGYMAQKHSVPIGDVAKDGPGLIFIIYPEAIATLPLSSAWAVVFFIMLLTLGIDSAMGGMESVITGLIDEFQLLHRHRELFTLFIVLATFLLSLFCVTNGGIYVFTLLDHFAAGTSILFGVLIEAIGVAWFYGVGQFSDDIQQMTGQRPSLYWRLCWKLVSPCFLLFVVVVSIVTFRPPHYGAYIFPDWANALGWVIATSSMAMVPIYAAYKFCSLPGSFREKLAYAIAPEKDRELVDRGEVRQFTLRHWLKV

IC50 (hSERT) [nM] | IC50 (hDAT) [nM] | SMILES | minimum effective dose in the mouse tail suspension study (Male Swiss Webster mice) [mg/kg]
26 | 28 | CC1(C)NCC(c2ccc(Cl)c(Cl)c2)c2ccc(-c3ccc(C(F)(F)F)nn3)cc21 (single isomer, unassigned) [Example 10, 4-(3,4-dichlorophenyl)-7-(6-(trifluoromethyl)pyridazin-3-yl)-1,1-dimethyl-1,2,3,4-tetrahydroisoquinoline] | –
– | – | Clc1ccc(C2CNCc3cc(-c4ccc5ncnn5c4)ccc32)cc1Cl (stereo not drawn) [Example 36, 7-([1,2,4]triazolo[1,5-a]pyridin-6-yl)-4-(3,4-dichlorophenyl)-1,2,3,4-tetrahydroisoquinoline] | 10

From patent US9604960B2, “Aryl, heteroaryl, and heterocycle substituted tetrahydroisoquinolines and use thereof” (Albany Molecular Research, Inc., priority 2009, dated 2017)
